Measured values taken from patent US5086069A, “Anti-thrombotic peptide and pseudopeptide derivatives” (Rorer Pharmaceutical Corporation, priority 1990, dated 1992).
Where two headings read alike, the source gives them in different places.

Assays:
Human Platelets = assay: Inhibition of Fibrinogen-Mediated Platelet Aggregation; assay type: cell-based; settings: thrombin-activated human platelets; for inhibition at 25 µM / Inhibition of Fibrinogen Mediated Platelet Aggregation % inhibition at 25 μM: 25 μM compound; for IC50: human fibrinogen added, rate of aggregation
Procedure: II. Inhibition of Fibrinogen--Mediated Platelet Aggregation, which is essentially based on the method described in Blood, Vol. 66, No. 4, Oct. 1985, pp. 846-952, and is as follows.
Human Platelets were isolated from freshly drawn whole blood and were suspended in 0.14 mol/L NaCl, 2.7 mmol/L […], 12 mmol/L NaHCO3, 0.42 mmol/L Na2 HPO4, 0.55 mmol/L glucose, and 5 mmol/L Hepes, pH 7.35 at 2×10^8 platelets/ml. The suspension was incubated at 37° C. An aliquot of 0.4 ml of platelet suspension was activated by human thrombin at a final concentration of 2 μg/ml of thrombin for one minute. After one minute the reaction was stopped by a thrombin inhibitor. Serial dilution of the compound being tested was then added to the activated platelet, the reaction was allowed to proceed for one minute, followed by the addition of human fibrinogen at a final concentration of […] of fibrinogen. Platelet aggregation was then recorded by an aggregometer. Rate of aggregation was used to calculate IC50.

[1] = target: T1, fibrinogen binding to thrombin-stimulated platelets (GPIIb/IIIa fibrinogen receptor) (Homo sapiens, UniProt P05106+P08514); assay: Inhibition of Radiolabeled (125I) Fibrinogen Binding Assay; settings: read-out: Inhibition of 125I-Fibrinogen (binding to) Platelet IC50
T1 construct: endogenous in cells; host or cells: washed platelets stimulated with human alpha-thrombin
Procedure: I. Inhibition of Radiolabeled (^125 I) Fibrinogen Binding Assay, which is essentially based on the method described in Proc. Natl. Acad. Sci. USA Vol. 83, pp. 5708-5712, Aug. 1986, and is as follows.
Platelets are washed free of plasma constituents by the albumin density-gradient technique. In each experimental mixture platelets in modified Tyrode's buffer are stimulated with human α-thrombin at 22°-25° C. for 10 minutes (3.125×10" platelets per liter and thrombin at […]). Hirudin is then added at a 25-fold excess for 5 minutes before addition of the radiolabeled ligand and any competing ligand. After these additions, the final platelet count in the mixture is 1×10"/liter. After incubation for an additional 30 minutes at 22°-25° C., bound and free ligand are separated by centrifuging 50 μl of the mixture through 300 μl of 20% sucrose at 12,000 xg for 4 minutes. The platelet pellet is then separated from the rest of the mixture to determine platelet-bound radioactivity. Nonspecific binding is measured in mixtures containing an excess of unlabeled ligand. When binding curves are analyzed by Scatchard analysis, nonspecific binding is derived as a fitted parameter from the binding isotherm by means of a computerized program. To determine the concentration of each inhibitory compound necessary to inhibit 50% of fibrinogen binding to thrombin-stimulated platelets (IC50), each compound is tested at 0.176 μgmol/liter (60 μg/ml). The IC50 is derived by plotting residual fibrinogen binding against the logarithm of the sample compound's concentration.

[2] = thrombin-stimulated washed platelets, 22-25° C.
[3] = no inhibition at concentrations of 50 μM or lower

T1 sequence (P08514 32-887 limits assumed): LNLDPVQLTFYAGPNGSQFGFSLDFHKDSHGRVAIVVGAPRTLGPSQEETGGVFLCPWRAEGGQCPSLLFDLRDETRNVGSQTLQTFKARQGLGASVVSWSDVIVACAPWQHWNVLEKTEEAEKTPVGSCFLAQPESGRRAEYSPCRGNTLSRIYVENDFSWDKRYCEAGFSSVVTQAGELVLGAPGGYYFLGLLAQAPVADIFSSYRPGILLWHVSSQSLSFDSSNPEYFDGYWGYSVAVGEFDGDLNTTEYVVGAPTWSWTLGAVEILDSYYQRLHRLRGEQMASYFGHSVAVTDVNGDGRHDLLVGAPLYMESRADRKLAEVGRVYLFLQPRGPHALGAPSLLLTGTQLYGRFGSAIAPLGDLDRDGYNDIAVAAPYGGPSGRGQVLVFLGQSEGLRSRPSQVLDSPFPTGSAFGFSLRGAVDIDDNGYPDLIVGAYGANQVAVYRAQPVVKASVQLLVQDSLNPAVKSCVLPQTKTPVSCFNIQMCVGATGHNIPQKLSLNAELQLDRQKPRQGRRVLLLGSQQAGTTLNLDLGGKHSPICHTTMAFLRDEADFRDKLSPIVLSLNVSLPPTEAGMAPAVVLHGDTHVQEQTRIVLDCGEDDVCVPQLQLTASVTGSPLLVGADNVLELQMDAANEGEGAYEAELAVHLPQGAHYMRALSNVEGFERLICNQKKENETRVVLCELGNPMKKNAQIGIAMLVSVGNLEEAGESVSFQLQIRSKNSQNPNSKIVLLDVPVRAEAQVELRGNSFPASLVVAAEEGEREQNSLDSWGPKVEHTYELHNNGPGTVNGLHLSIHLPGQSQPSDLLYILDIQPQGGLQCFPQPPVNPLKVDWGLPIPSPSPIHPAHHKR
T1 sequence (P08514 891-1039 limits assumed): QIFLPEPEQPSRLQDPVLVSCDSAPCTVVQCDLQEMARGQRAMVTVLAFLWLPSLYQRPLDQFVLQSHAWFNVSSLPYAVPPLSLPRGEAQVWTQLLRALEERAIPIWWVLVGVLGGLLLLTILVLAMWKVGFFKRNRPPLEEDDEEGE
T1 sequence (P05106 27-788): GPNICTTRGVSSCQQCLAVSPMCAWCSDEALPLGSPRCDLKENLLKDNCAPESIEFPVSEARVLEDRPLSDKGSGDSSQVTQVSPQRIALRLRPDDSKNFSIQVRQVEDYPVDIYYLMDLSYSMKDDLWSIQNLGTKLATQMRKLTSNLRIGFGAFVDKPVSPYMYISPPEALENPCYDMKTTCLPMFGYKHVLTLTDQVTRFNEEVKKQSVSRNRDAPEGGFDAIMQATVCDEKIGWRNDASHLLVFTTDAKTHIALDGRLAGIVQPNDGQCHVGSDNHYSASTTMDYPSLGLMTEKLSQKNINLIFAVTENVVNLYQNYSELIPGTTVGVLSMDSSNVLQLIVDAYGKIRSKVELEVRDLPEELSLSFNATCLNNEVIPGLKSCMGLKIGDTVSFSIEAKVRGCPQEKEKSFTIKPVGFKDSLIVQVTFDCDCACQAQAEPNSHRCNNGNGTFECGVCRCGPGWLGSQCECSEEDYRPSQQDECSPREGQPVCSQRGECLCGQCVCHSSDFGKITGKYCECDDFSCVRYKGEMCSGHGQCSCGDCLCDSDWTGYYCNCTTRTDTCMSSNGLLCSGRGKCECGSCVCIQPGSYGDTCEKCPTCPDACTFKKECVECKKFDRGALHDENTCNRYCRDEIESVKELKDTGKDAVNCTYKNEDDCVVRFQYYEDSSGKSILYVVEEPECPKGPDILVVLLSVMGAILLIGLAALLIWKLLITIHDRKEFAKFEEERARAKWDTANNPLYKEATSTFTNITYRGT

SMILES | inhibition at 25 µM (Human Platelets; Platelet) | IC50 [1, 2] | Inhibition of Fibrinogen Mediated Platelet Aggregation % inhibition at 25 μM (Human Platelets) | IC50 [1, 3] | IC50 (Human Platelets) | IC50 (Human Platelets; Platelet)
CC(C)[C@H](NC(=O)[C@H](CC(=O)O)NC(=O)c1ccc(CNC(=N)N)cc1)C(=O)O [N-(4-guanidinomethylbenzoyl)-L-aspartyl-L-valine] | 16% | 22 µM |  |  |  | 
CC(C)[C@H](NC(=O)[C@H](CC(=O)O)NC(=O)c1ccc(NC(=N)N)cc1)C(=O)O [4-Guanidinobenzoyl-L-aspartyl-L-valine, N-(4-quanidinobenzoyl)-L-aspartyl-L-valine] |  |  | 33.0% |  |  | 
CC(C)[C@H](NC(=O)[C@H](CC(=O)O)NC(=O)Cc1ccc(CNC(=N)N)cc1)C(=O)O [4-Guanidinomethyl phenylacetoyl-L-aspartyl-L-valine] | 42% |  |  | ≥ 50 µM |  | 
CC(C)[C@H](NC(=O)[C@H](CC(=O)O)NC(=O)c1ccc(CCNC(=N)N)cc1)C(=O)O [4-(2-quanidinoethyl)benzoyl]-L-aspartyl-L-valine] |  | 10.9 µM | 85.0% |  | 7.7 µM | 
CC(C)[C@H](NC(=O)[C@H](CC(=O)O)NC(=O)c1ccc(CCCNC(=N)N)cc1)C(=O)O [4-(3-Guanidinopropyl)benzoyl-L-aspartyl-L-valine] | 83.3% |  |  |  |  | 7.6 µM
CC(C)[C@H](NC(=O)[C@H](CC(=O)O)NC(=O)Cc1ccc(NC(=N)N)cc1)C(=O)O [N-(4-guanidinophenylacetoyl)-L-aspartyl-L-valine] | 43% | 20 µM |  |  |  | 
CC(C)[C@H](NC(=O)[C@H](CC(=O)O)NC(=O)Cc1cccc(CNC(=N)N)c1)C(=O)O [3-Guanidinomethylphenylacetoyl-L-aspartyl-L-valine] | 15.2% |  |  |  |  | 
CC(C)[C@H](NC(=O)[C@H](CC(=O)O)NC(=O)c1cccc(CCNC(=N)N)c1)C(=O)O [N-[3-(2-guanidinoethyl)benzoyl]-L-aspartyl-L-valine] | 37% | 115 µM |  |  |  | 33.1 µM
CC(C)[C@H](NC(=O)[C@H](CC(=O)O)NC(=O)c1cccc(NC(=N)N)c1)C(=O)O [3-Guanidinobenzoyl-L-aspartyl-L-valine, N-(3-guanidinobenzoyl)-L-aspartyl-L-valine] | 6.3% |  |  | ≥ 50 µM |  | 
CC(C)[C@H](NC(=O)[C@H](CC(=O)O)NC(=O)c1cccc(CNC(=N)N)c1)C(=O)O [N-(3-guanidinomethylbenzoyl)-L-aspartyl-L-valine] | 53% |  |  | ≥ 50 µM |  | 30.2 µM
CC(C)[C@H](NC(=O)[C@H](CC(=O)O)NC(=O)C=Cc1ccc(NC(=N)N)cc1)C(=O)O [4-Guanidino cinnamoyl-L-aspartyl-L-valine] | 25% | 0.25 µM |  |  |  | 2.8 µM
CC(C)[C@H](NC(=O)[C@H](CC(=O)O)NC(=O)CCc1ccc(NC(=N)N)cc1)C(=O)O [3-(4-guanidinophenyl)propanoyl-L-aspartyl-L-valine] | 65% | 4.5 µM |  |  |  | 14 µM
CC(C)[C@H](NC(=O)[C@H](CC(=O)O)NC(=O)c1cccc(CCCNC(=N)N)c1)C(=O)O [3-(3-Guanidinopropyl)benzoyl-L-aspartyl-L-valine] | 52% |  |  | ≥ 50 µM |  | 
